Measurements as given in ChEMBL document CHEMBL1201862, “PubChem BioAssay data set” (2004).
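Where inhibition never reached the appropriate level, the endpoint shown equals the highest concentration tested. Otherwise, values were interpolated linearly from a five-concentration, 48-hour dose response in 96-well plates. Abbreviation: GI50, concentration required for 50% inhibition of growth.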 Calls of active or inactive are those of the source. No stated cut-off is given here; in the data, active = GI50 up to about 1.1 µM and inactive = higher.

Assays:
Test in all cases: NCI anticancer screen, dose series, 48 h
SNB-78 = system: SNB-78
OVCAR-8 = system: OVCAR-8
OVCAR-4 = system: OVCAR-4
DLD-1 = system: DLD-1
DMS-273 = system: DMS-273
SNB-75 = system: SNB-75
SW-620 = system: SW-620
UO-31 = system: UO-31
EKVX = system: EKVX
CCRF-CEM = system: CCRF-CEM
HCT-116 = system: HCT-116
M14 = system: M14
M19-MEL = system: M19-MEL
TK-10 = system: TK-10
UACC-62 = system: UACC-62
SK-OV-3 = system: SK-OV-3
SK-MEL-28 = system: SK-MEL-28
HOP-62 = system: HOP-62
A498 = system: A498
COLO 205 = system: COLO 205
HL-60 = system: HL-60
IGROV-1 = system: IGROV-1
A549 = system: A549
OVCAR-3 = system: OVCAR-3
HT-29 = system: HT-29
MOLT-4 = system: MOLT-4
XF498 = system: XF498
KM-20L2 = system: KM-20L2
LOX IMVI = system: LOX IMVI
HCC 2998 = system: HCC 2998
SK-MEL-2 = system: SK-MEL-2
HOP-18 = system: HOP-18
LXFL 529 = system: LXFL 529
CAKI-1 = system: CAKI-1
SF-539 = system: SF-539
SK-MEL-5 = system: SK-MEL-5
NCI-H460 = system: NCI-H460
SF-268 = system: SF-268
NCI-H23 = system: NCI-H23
KM12 = system: KM12
SNB-19 = system: SNB-19
786-0 = system: 786-0
UACC-257 = system: UACC-257
SR = system: SR
K562 = system: K562
HCT-15 = system: HCT-15
SF-295 = system: SF-295
RXF 393 = system: RXF 393
DMS-114 = system: DMS-114
HOP-92 = system: HOP-92
Malme-3M = system: Malme-3M
NCI-H226 = system: NCI-H226
ACHN = system: ACHN
U-251 = system: U-251
SN12C = system: SN12C
OVCAR-5 = system: OVCAR-5
RXF 631 = system: RXF 631
NCI-H522 = system: NCI-H522
RPMI-8226 = system: RPMI-8226

Compound: Cc1cc(C)nc(NS(=O)(=O)c2ccc(Nc3c4ccccc4nc4c(C(=O)N5CCN(CCO)CC5)cccc34)cc2)n1
- GI50 (SNB-78): > 100 µM (inactive)
- GI50 (OVCAR-8): > 100 µM (inactive)
- GI50 (OVCAR-4): > 100 µM (inactive)
- GI50 (DLD-1): > 100 µM (inactive)
- GI50 (DMS-273): > 100 µM (inactive)
- GI50 (SNB-75): 95.7 µM (inactive)
- GI50 (SW-620): > 100 µM (inactive)
- GI50 (UO-31): > 100 µM (inactive)
- GI50 (EKVX): > 100 µM (inactive)
- GI50 (CCRF-CEM): > 100 µM (inactive)
- GI50 (HCT-116): > 100 µM (inactive)
- GI50 (M14): > 100 µM (inactive)
- GI50 (M19-MEL): > 100 µM (inactive)
- GI50 (TK-10): > 100 µM (inactive)
- GI50 (UACC-62): > 100 µM (inactive)
- GI50 (SK-OV-3): > 100 µM (inactive)
- GI50 (SK-MEL-28): > 100 µM (inactive)
- GI50 (HOP-62): > 100 µM (inactive)
- GI50 (A498): > 100 µM (inactive)
- GI50 (COLO 205): > 100 µM (inactive)
- GI50 (HL-60): > 100 µM (inactive)
- GI50 (IGROV-1): > 100 µM (inactive)
- GI50 (A549): > 100 µM (inactive)
- GI50 (OVCAR-3): > 100 µM (inactive)
- GI50 (HT-29): > 100 µM (inactive)
- GI50 (MOLT-4): > 100 µM (inactive)
- GI50 (XF498): > 100 µM (inactive)
- GI50 (KM-20L2): > 100 µM (inactive)
- GI50 (LOX IMVI): > 100 µM (inactive)
- GI50 (HCC 2998): > 100 µM (inactive)
- GI50 (SK-MEL-2): > 100 µM (inactive)
- GI50 (HOP-18): > 100 µM (inactive)
- GI50 (LXFL 529): > 100 µM (inactive)
- GI50 (CAKI-1): > 100 µM (inactive)
- GI50 (SF-539): > 100 µM (inactive)
- GI50 (SK-MEL-5): > 100 µM (inactive)
- GI50 (NCI-H460): > 100 µM (inactive)
- GI50 (SF-268): > 100 µM (inactive)
- GI50 (NCI-H23): > 100 µM (inactive)
- GI50 (KM12): > 100 µM (inactive)
- GI50 (SNB-19): > 100 µM (inactive)
- GI50 (786-0): > 100 µM (inactive)
- GI50 (UACC-257): > 100 µM (inactive)
- GI50 (SR): > 100 µM (inactive)
- GI50 (K562): > 100 µM (inactive)
- GI50 (HCT-15): > 100 µM
- GI50 (SF-295): > 100 µM (inactive)
- GI50 (RXF 393): > 100 µM (inactive)
- GI50 (DMS-114): > 100 µM (inactive)
- GI50 (HOP-92): > 100 µM (inactive)
- GI50 (Malme-3M): > 100 µM (inactive)
- GI50 (NCI-H226): > 100 µM (inactive)
- GI50 (ACHN): > 100 µM (inactive)
- GI50 (U-251): > 100 µM (inactive)
- GI50 (SN12C): > 100 µM (inactive)
- GI50 (OVCAR-5): > 100 µM (inactive)

Compound: CC(C)(C)OC(=O)N1N=NC2C3CC(=O)C(O3)C21 (stereo not drawn)
- GI50 (OVCAR-8): 86.1 µM (inactive)
- GI50 (OVCAR-4): > 10 µM (inactive)
- GI50 (DLD-1): > 100 µM (inactive)
- GI50 (DMS-273): > 100 µM (inactive)
- GI50 (SW-620): > 100 µM (inactive)
- GI50 (UO-31): > 100 µM (inactive)
- GI50 (EKVX): > 100 µM (inactive)
- GI50 (CCRF-CEM): > 100 µM (inactive)
- GI50 (HCT-116): > 10 µM (inactive)
- GI50 (M14): > 100 µM (inactive)
- GI50 (TK-10): > 100 µM (inactive)
- GI50 (A498): > 100 µM (inactive)
- GI50 (COLO 205): > 10 µM (inactive)
- GI50 (IGROV-1): > 100 µM (inactive)
- GI50 (A549): > 100 µM (inactive)
- GI50 (RXF 631): > 100 µM (inactive)
- GI50 (OVCAR-3): > 100 µM (inactive)
- GI50 (MOLT-4): > 100 µM (inactive)
- GI50 (KM-20L2): > 100 µM (inactive)
- GI50 (NCI-H522): > 100 µM (inactive)
- GI50 (HOP-18): > 100 µM (inactive)
- GI50 (LXFL 529): > 100 µM (inactive)
- GI50 (CAKI-1): > 100 µM (inactive)
- GI50 (SF-539): > 100 µM (inactive)
- GI50 (SK-MEL-5): > 100 µM (inactive)
- GI50 (NCI-H460): > 100 µM (inactive)
- GI50 (786-0): > 100 µM (inactive)
- GI50 (UACC-257): > 10 µM (inactive)
- GI50 (SR): > 100 µM (inactive)
- GI50 (K562): > 100 µM (inactive)
- GI50 (SF-295): > 100 µM (inactive)
- GI50 (RXF 393): > 100 µM (inactive)
- GI50 (HOP-92): > 100 µM (inactive)
- GI50 (Malme-3M): > 100 µM (inactive)
- GI50 (ACHN): > 100 µM (inactive)
- GI50 (SN12C): > 100 µM (inactive)
- GI50 (RPMI-8226): > 100 µM (inactive)

Compound: C/C=C(\C)C(=O)N1c2ccccc2CC1c1c(C)[nH]c2ccccc12 (stereo not drawn)
- GI50 (SNB-78): 86.5 µM (inactive)
- GI50 (OVCAR-8): 83.8 µM (inactive)
- GI50 (OVCAR-4): 4.15 µM (inactive)
- GI50 (DLD-1): 8.18 µM (inactive)
- GI50 (DMS-273): 39.1 µM (inactive)
- GI50 (SNB-75): 35 µM (inactive)
- GI50 (SW-620): > 100 µM (inactive)
- GI50 (UO-31): 36.1 µM (inactive)
- GI50 (EKVX): 71.1 µM (inactive)
- GI50 (CCRF-CEM): 42.5 µM (inactive)
- GI50 (HCT-116): 86.9 µM (inactive)
- GI50 (M14): 39.3 µM (inactive)
- GI50 (M19-MEL): 61.7 µM (inactive)
- GI50 (TK-10): 73.3 µM (inactive)
- GI50 (UACC-62): 40.7 µM (inactive)
- GI50 (SK-OV-3): > 100 µM (inactive)
- GI50 (SK-MEL-28): > 100 µM (inactive)
- GI50 (HOP-62): > 100 µM (inactive)
- GI50 (A498): > 100 µM (inactive)
- GI50 (COLO 205): 23.3 µM (inactive)
- GI50 (HL-60): 15.1 µM (inactive)
- GI50 (IGROV-1): 39.6 µM (inactive)
- GI50 (A549): > 100 µM (inactive)
- GI50 (RXF 631): > 100 µM (inactive)
- GI50 (OVCAR-3): 21.5 µM (inactive)
- GI50 (HT-29): 38.4 µM (inactive)
- GI50 (MOLT-4): 19.9 µM (inactive)
- GI50 (KM-20L2): 47.4 µM (inactive)
- GI50 (LOX IMVI): > 100 µM (inactive)
- GI50 (HCC 2998): > 100 µM (inactive)
- GI50 (SK-MEL-2): 19.3 µM (inactive)
- GI50 (NCI-H522): 42.3 µM (inactive)
- GI50 (LXFL 529): 72.9 µM (inactive)
- GI50 (CAKI-1): 48.8 µM (inactive)
- GI50 (SF-539): 50.8 µM (inactive)
- GI50 (SK-MEL-5): > 10 µM (inactive)
- GI50 (NCI-H460): 37.9 µM (inactive)
- GI50 (NCI-H23): 55.2 µM (inactive)
- GI50 (KM12): 26.7 µM (inactive)
- GI50 (SNB-19): > 100 µM (inactive)
- GI50 (786-0): > 100 µM (inactive)
- GI50 (UACC-257): 25.2 µM (inactive)
- GI50 (SR): > 100 µM (inactive)
- GI50 (K562): 39.6 µM (inactive)
- GI50 (HCT-15): 37 µM
- GI50 (SF-295): 40 µM (inactive)
- GI50 (RXF 393): > 100 µM (inactive)
- GI50 (HOP-92): 12.2 µM (inactive)
- GI50 (Malme-3M): 32 µM (inactive)
- GI50 (NCI-H226): > 100 µM (inactive)
- GI50 (ACHN): 55.8 µM (inactive)
- GI50 (U-251): 91.6 µM (inactive)
- GI50 (SN12C): > 100 µM (inactive)
- GI50 (OVCAR-5): 37.3 µM (inactive)
- GI50 (RPMI-8226): 25.3 µM (inactive)
